Data published in US4192799A, “Conjugates formed by reacting a prostaglandin mimic compound with a carrier molecule” (The Upjohn Company, priority 1977, dated 1980).
Like-named read-outs stand apart in the source and are kept apart here.

Assays:
[1] = test system: antiserum raised against 9-deoxy-9-methylene PGF2 (KLH Conjugate); assay: RIA cross-reactivity of antiserum raised against 9-deoxy-9-methylene PGF2, KLH conjugate; assay type: binding, Albino New Zealand rabbits; settings: relative to PGE2; ng required to displace 50% of [3H]PGE2
Experimental: (§1) Five milligrams of KLH-PGE2 mimic conjugate is added to 2.25 ml. of sterile saline (0.9%) and 2.25 ml. of Freund's complete adjuvant and blended. 1.0 ml. of this mixture is injected subcutaneously at 20-30 sites on the flanks of four Albino New Zealand rabbits of 2-4 kg. mass. Each rabbit receives a dose of about 1 mg. On the same day, 1.0 ml. of attenuated pertussis vaccine is injected intramuscularly at four sites on the hindquarters of each rabbit.
(§2) A known amount of PGE-type compound in 0.1 ml. PBSG buffer at pH 7.4±0.2 and 0.1 ml. of the radiolabeled form of the same PGE-type compound (10,000 cpm/0.1 ml. PBSG) are introduced into a 12×75 mm. polypropylene tube. Antiserum (0.1 ml.) against the corresponding mimic is added at a dilution which will bind 50%±3% of the radiolabeled authentic PGE-type compound in the absence of competition from the unlabeled PGE-type compound. The tube is incubated for 1 hour at 25° and then 12-16 hours at 4°. Antibody bound and free fractions are separated with dextrancoated charcoal. Other separation techniques are acceptable.
(§3) The data below show the cross-reactivity of antiserum raised against 9-deoxy-9-methylene PGF2 to various PGE-type compounds, relative to PGE2. Percent cross-reaction is defined as (ng. of PGE2 required to displace 50% of [^3 H] PGE2)/(ng. heterologous PG required to displace 50% of [^3 H] PGE2)×100.

[2] = test system: antiserum raised against 9-deoxy-9-methylene PGF2 (BSA Conjugate); assay: RIA cross-reactivity of antiserum raised against 9-deoxy-9-methylene PGF2, BSA conjugate; assay type: binding, Albino New Zealand rabbits; settings: relative to PGE2; ng required to displace 50% of [3H]PGE2
Experimental: as §1
Antibodies against other PG mimics can be elicited by substituting equal amounts of other conjugates, such as those of preparations 1 through 9, for the KLH-PGE2 mimic conjugate in procedure 1. For example, the following conjugates can be substituted:
as §2, §3

[3] = aqueous solution at room temperature; cited from earlier work
[4] = test system: antibodies against PGE2 -BSA conjugate (Example 1); settings: Table II Example 1, conjugate PGE2 -BSA, PGE2 = 100; cited from earlier work
[5] = test system: antibodies against PGE2 -BSA conjugate (Example 3); settings: Table II Example 3, conjugate PGE2 -BSA, PGE2 = 100; cited from earlier work
[6] = test system: antibodies against PGE1 -poly-1-lysine conjugate; settings: Table 1 Example 2, conjugate PGE1 -poly-1-lysine, PGE1 = 100; cited from earlier work
[7] = test system: antibodies against PGE1 -BSA conjugate (Example 4); settings: Table 1 Example 4, conjugate PGE1 -BSA, PGE1 = 100; cited from earlier work
[8] = test system: antibodies against PGE1 -BSA conjugate (Example 5); settings: Table 1 Example 5, conjugate PGE1 -BSA, PGE1 = 100; cited from earlier work
[9] = test system: antibodies against PGE1 -BSA conjugate (Example 6); settings: Table 1 Example 6, conjugate PGE1 -BSA, PGE1 = 100; cited from earlier work
[10] = test system: antibodies against PGE1 -BSA conjugate (Example 7); settings: Table 1 Example 7, conjugate PGE1 -BSA, PGE1 = 100; cited from earlier work
[11] = test system: antibodies against PGE1 -thyroglobulin conjugate; settings: Table 1 Example 1, conjugate PGE1 -thyroglobulin, PGE1 = 100; cited from earlier work
[12] = test system: antibodies against PGE1 -porcine gamma globulin conjugate; settings: Table 1 Example 3, conjugate PGE1 -porcine gamma globulin, PGE1 = 100; cited from earlier work
[13] = test system: antibodies against PGE2 -KLH conjugate; settings: Table II Example 2, conjugate PGE2 -KLH, PGE2 = 100; cited from earlier work
[14] = test system: antibodies against PGE2 -hen gamma globulin conjugate; settings: Table II Example 4, conjugate PGE2 -hen gamma globulin, PGE2 = 100; cited from earlier work
[15] = test system: antibodies against PGE2 -BSA conjugate (Example 5); settings: Table II Example 5, conjugate PGE2 -BSA, PGE2 = 100, cited from earlier work

## CCCCC[C@H](O)/C=C/[C@@H]1[C@@H](CCCCCCC(=O)O)[C@H](O)C[C@H]1O [PGF1 β]
[1]
  % Cross-Reaction KLH Conjugate: 0.30%
[2]
  % Cross-Reaction BSA Conjugate: 5.0%

## CCCCC[C@H](O)/C=C/[C@@H]1[C@@H](C/C=C\CCCC(=O)O)[C@@H](O)C[C@H]1O [PGF2 α]
[1]
  % Cross-Reaction KLH Conjugate: 0.20%
[2]
  % Cross-Reaction BSA Conjugate: 1.5%

## CCCCC[C@H](O)/C=C/[C@@H]1[C@@H](C/C=C\CCCC(=O)O)[C@@H]2C[C@H]1OO2 [PGH2]
[3]
  half-life: approximately five

## CCCCC[C@H](O)/C=C/[C@H]1C(=O)C[C@H](O)[C@@H]1C/C=C\CCCC(=O)O [PGD2]
[1]
  % Cross-Reaction KLH Conjugate: 0.02%
[2]
  % Cross-Reaction BSA Conjugate: 10.0%

## PGB3
[4]
  % Cross Reaction: 7%
[5]
  % Cross Reaction: 62%

## CCCCC[C@H](O)/C=C/[C@@H]1[C@@H](CC(=O)CCCCC(=O)O)[C@@H](O)C[C@H]1O [6-keto-PGF1 α]
[1]
  % Cross-Reaction KLH Conjugate: 0.10%
[2]
  % Cross-Reaction BSA Conjugate: 0.50%

## CCCCC[C@H](O)CC[C@H]1[C@H](O)CC(=O)[C@@H]1C/C=C\CCCC(=O)O [13,14-dihydro-PGE2]
[1]
  % Cross-Reaction KLH Conjugate: 1.6%
[2]
  % Cross-Reaction BSA Conjugate: 3.6%

## CCCCCC(=O)CC[C@H]1[C@H](O)CC(=O)[C@@H]1C/C=C\CCCC(=O)O [13,14-dihydro-15-keto-PGE2, 13,14-dihydro-15-keto-PGE]
[1]
  % Cross-Reaction KLH Conjugate: 0.03%
[2]
  % Cross-Reaction BSA Conjugate: 0.2%

## CCCCC[C@H](O)/C=C/[C@H]1C=CC(=O)[C@@H]1CCCCCCC(=O)O [PGA1]
[1]
  % Cross-Reaction KLH Conjugate: 0.08%
[2]
  % Cross-Reaction BSA Conjugate: 4.9%
[6]
  % Cross Reaction: 220%
[7]
  % Cross Reaction: 100%
[8]
  % Cross Reaction: 25%
[9]
  % Cross Reaction: 10,000%
[10]
  % Cross Reaction: 6%
[4]
  % Cross Reaction: 7%
[5]
  % Cross Reaction: 200%

## CCCCC[C@H](O)/C=C/[C@H]1C(=O)C[C@H](O)[C@@H]1CCCCCCC(=O)O [PGD1]
[1]
  % Cross-Reaction KLH Conjugate: 0.02%
[2]
  % Cross-Reaction BSA Conjugate: 4.9%

## C=C1C[C@@H](O)[C@H](/C=C/[C@@H](O)CCCCC)[C@H]1C/C=C\CCCC(=O)O [9-deoxy-9-methylene PGF2, 9-deoxy-9-methylene-PGF2]
[1]
  % Cross-Reaction KLH Conjugate: 100%
[2]
  % Cross-Reaction BSA Conjugate: 100%

## PGE1 α
[1]
  % Cross-Reaction KLH Conjugate: 0.09%
[2]
  % Cross-Reaction BSA Conjugate: 2.9%

## CCCCC[C@H](O)/C=C/[C@H]1[C@H](O)CC(=O)[C@@H]1CCCCCCC(=O)O [PGE1]
[1]
  % Cross-Reaction KLH Conjugate: 90%
[2]
  % Cross-Reaction BSA Conjugate: 100%
[11]
  % Cross Reaction: 100%
[6]
  % Cross Reaction: 100%
[12]
  % Cross Reaction: 100%
[7]
  % Cross Reaction: 100%
[8]
  % Cross Reaction: 100%
[9]
  % Cross Reaction: 100%
[10]
  % Cross Reaction: 100%
[4]
  % Cross Reaction: 10%
[13]
  % Cross Reaction: 110%
[5]
  % Cross Reaction: 73%
[14]
  % Cross Reaction: 15%
[15]
  % Cross Reaction: 55%

## CCCCC[C@H](O)/C=C/C1=C(CCCCCCC(=O)O)C(=O)CC1 [PGB1]
[1]
  % Cross-Reaction KLH Conjugate: 0.005%
[2]
  % Cross-Reaction BSA Conjugate: 0.1%
[6]
  % Cross Reaction: 31,000%
[12]
  % Cross Reaction: 10%
[9]
  % Cross Reaction: 100,000%
[10]
  % Cross Reaction: 66%

## CCCCC[C@H](O)/C=C/[C@H]1C=CC(=O)[C@@H]1C/C=C\CCCC(=O)O [PGA2]
[1]
  % Cross-Reaction KLH Conjugate: 0.75%
[2]
  % Cross-Reaction BSA Conjugate: 2.8%
[6]
  % Cross Reaction: 440%
[7]
  % Cross Reaction: 100%
[8]
  % Cross Reaction: 10%
[9]
  % Cross Reaction: 1000%
[4]
  % Cross Reaction: 7%
[5]
  % Cross Reaction: 400%
[14]
  % Cross Reaction: 3%
[15]
  % Cross Reaction: 550%
[15]; listed as A2
  % Cross Reaction: recognized preferentially

## CCCCC[C@H](O)CC[C@@H]1[C@@H](C/C=C\CCCC(=O)O)[C@@H](O)C[C@H]1O [13,14-dihydro-PGF2 α]
[1]
  % Cross-Reaction KLH Conjugate: 0.34%
[2]
  % Cross-Reaction BSA Conjugate: 0.2%

## CCCCCC(=O)/C=C/[C@@H]1[C@@H](C/C=C\CCCC(=O)O)[C@@H](O)C[C@H]1O [15-keto-PGF2 α]
[1]
  % Cross-Reaction KLH Conjugate: 0.01%
[2]
  % Cross-Reaction BSA Conjugate: 0.2%

## CCCCC[C@H](O)/C=C/[C@H]1[C@H](O)CC(=O)[C@@H]1C/C=C\CCCC(=O)O [PGE2, prostaglandin E2]
[11]
  % Cross Reaction: 20%
[6]
  % Cross Reaction: 10%
[7]
  % Cross Reaction: 100%
[9]
  % Cross Reaction: 90%
[4]
  % Cross Reaction: 100%
[13]
  % Cross Reaction: 100%
[5]
  % Cross Reaction: 100%
[14]
  % Cross Reaction: 100%
[15]
  % Cross Reaction: 100%

## CCCCC[C@H](O)/C=C/[C@@H]1[C@@H](C/C=C\CCCC(=O)O)[C@H](O)C[C@H]1O [PGF2 β]
[1]
  % Cross-Reaction KLH Conjugate: 3.0%
[2]
  % Cross-Reaction BSA Conjugate: 4.4%

## CCCCC[C@H](O)/C=C/C1=C(C/C=C\CCCC(=O)O)C(=O)CC1 [PGB2]
[1]
  % Cross-Reaction KLH Conjugate: 0.009%
[2]
  % Cross-Reaction BSA Conjugate: 0.0%
[6]
  % Cross Reaction: 8,500%
[7]
  % Cross Reaction: 100%
[9]
  % Cross Reaction: 50,000%
[4]
  % Cross Reaction: 7%
[15]
  % Cross Reaction: 580%
[15]; listed as B2
  % Cross Reaction: recognized preferentially

## CCCCCC(=O)/C=C/[C@H]1[C@H](O)CC(=O)[C@@H]1C/C=C\CCCC(=O)O [15-keto-PGE2]
[1]
  % Cross-Reaction KLH Conjugate: 0.03%
[2]
  % Cross-Reaction BSA Conjugate: 2.5%

## CCCCCC(=O)CC[C@@H]1[C@@H](C/C=C\CCCC(=O)O)[C@@H](O)C[C@H]1O [13,14-dihydro-15-keto-PGF2 α]
[1]
  % Cross-Reaction KLH Conjugate: 0.10%
[2]
  % Cross-Reaction BSA Conjugate: 0.01%
